Bridges are numbered along the chain shown (N, C = ends). Where no end group is shown, it is not given here.
Experiments:
Format in all cases: cell-based
Rhizoctonia solani = assay: Anti-filamentous fungal activity, inhibitory circle on agar plate; settings: 1 μl sample spotted, culture 24 hours at 25° C.
Description: Rhizoctonia solani microorganisms were cultured in a potato dextrose (PD) medium (Difco) at 25° C. for 5 days, and then their hyphae were cut thin with a homogenizer. From the resulting suspension of thin hyphae, a clump of hyphae was removed, and the hyphae were recovered by centrifugation and adjusted to a density of 10^5 hyphae/ml with PD medium. A PDA medium was added in a solution form to 250 μl hypha suspension to form 5 ml suspension which was then spread on a Petri dish (diameter, 8.4 cm). After the medium was solidified, 1 μl sample for activity evaluation was spotted thereon followed by culture for 24 hours at 25° C., and the size of an inhibitory circle formed around the spot was measured.
The above-described method of evaluating anti-Rhizoctonia solani activity was used to evaluate the activity of the 4 synthetic proteins.

Staphylococcus aureus = system: Staphylococcus aureus
Phytophthora infestance = settings: V8 juice medium, 20° C., 50 μg protein spotted
Escherichia coli = system: Escherichia coli
Pyricularia oryzae = settings: 50 μg protein spotted
Rhizoctonia solani Kuhn = system: Rhizoctonia solani Kuhn
Septoria tritici = system: Septoria tritici

Substance | Inhibitory circle (Rhizoctonia solani) | Inhibitory circle (Staphylococcus aureus) | Inhibitory circle (Phytophthora infestance) | Inhibitory circle (Escherichia coli) | Inhibitory circle (Pyricularia oryzae) | Inhibitory circle (Rhizoctonia solani Kuhn) | Inhibitory circle (Septoria tritici)
SP4523: protein consisting of 40 amino acid residues in total represented by SEQ ID NO:10; chemically synthesized (DAELPKLPDDKVLIRSRSNCPKGKVWNGFDCKSPFAFSKK; Oryctes rhinoceros) | ⊚ (Inhibitory circle of 4 mm or more) | – | – | – | – | – | –
SP4266: protein consisting of 38 amino acid residues in total represented by SEQ ID NO:8; chemically synthesized (DAELPKLPDDKVLIRSRSNCPKGKVWNGFDCKSPFAFS; Oryctes rhinoceros) | ⊚ (Inhibitory circle of 4 mm or more) | – | – | – | – | – | –
SP4337: protein consisting of 38 amino acid residues in total represented by SEQ ID NO:9; chemically synthesized (ELPKLPDDKVLIRSRSNCPKGKVWNGFDCKSPFAFSKK; Oryctes rhinoceros) | ⊚ (Inhibitory circle of 4 mm or more) | – | – | – | – | – | –
SP4080: protein consisting of 36 amino acid residues, SEQ ID NO:7, from Coconut rhinoceros beetle; chemically synthesized with disulfide linkages (ELPKLPDDKVLIRSRSNCPKGKVWNGFDCKSPFAFS; disulfide 18-29 (inferred)) | ⊚ (Inhibitory circle of 4 mm or more) | ⊚ (key: ⊚: Inhibitory circle of 4 mm or more; ◯: Inhibitory circle of less than 4 mm; X: No activity) | ◯ (Inhibitory circle of less than 4 mm) | ⊚ (key: ⊚: Inhibitory circle of 4 mm or more; ◯: Inhibitory circle of less than 4 mm; X: No activity) | ◯ (Inhibitory circle of less than 4 mm) | ⊚ (key: ⊚: Inhibitory circle of 4 mm or more; ◯: Inhibitory circle of less than 4 mm; X: No activity) | ◯ (key: ⊚: Inhibitory circle of 4 mm or more; ◯: Inhibitory circle of less than 4 mm; X: No activity)
